Source: patent EP0025288A1, “Derivatives of monic acid, processes for their preparation, compositions containing them and their preparation” (priority 1979, dated 1981)

Assays:
[1] = test system: Past multocida PA2; test: MIC, veterinary bacteria; format: cell-based; conditions: veterinary bacteria (Table 2), read-out: MIC
[2] = test system: Erysipelothrix rhusiopathiae NCTC 8163; test: MIC, veterinary bacteria; format: cell-based; conditions: NCTC8163, veterinary bacteria (Table 2), read-out: MIC
[3] = test system: S typhimurium S18; test: MIC, veterinary bacteria; format: cell-based; conditions: veterinary bacteria (Table 2), read-out: MIC
[4] = test system: Corynebacterium pyogenes CY1; test: MIC, veterinary bacteria; format: cell-based; conditions: veterinary bacteria (Table 2), read-out: MIC
[5] = test system: M. suipneumoniae PW/C/210; test: MIC, anti-mycoplasmal, Friis broth solidified with 0.9% agarose; format: cell-based; conditions: Mesomycoplasma hyopneumoniae, 144 h, inoculum 10^3 to 10^5 C.F.U., 6 days incubation at 37°C, read-out: in vitro MIC
[6] = test system: Strep dysgalaciae SPD1; test: MIC, veterinary bacteria; format: cell-based; conditions: veterinary bacteria (Table 2), read-out: MIC
[7] = test system: M. gallisepticum S6; test: MIC, anti-mycoplasmal, Friis broth solidified with 0.9% agarose; format: cell-based; conditions: Mycoplasmoides gallisepticum, 144 h, inoculum 10^3 to 10^5 C.F.U., 6 days incubation at 37°C, read-out: in vitro MIC
[8] = test system: Past multocida PA1; test: MIC, veterinary bacteria; format: cell-based; conditions: veterinary bacteria (Table 2), read-out: MIC
[9] = test system: M. suipneumoniae J2206/183b; test: MIC, anti-mycoplasmal, Friis broth solidified with 0.9% agarose; format: cell-based; conditions: Mesomycoplasma hyopneumoniae, 144 h, inoculum 10^3 to 10^5 C.F.U., 6 days incubation at 37°C, read-out: in vitro MIC
[10] = test system: M. pneumoniae ATCC 15492; test: as above; format: cell-based; conditions: Mycoplasmoides pneumoniae, ATCC15492, 144 h, inoculum 10^3 to 10^5 C.F.U., 6 days incubation at 37°C, read-out: in vitro MIC
[11] = test system: M. bovis NCTC 10131; test: microbe, parasite or virus in culture; format: cell-based; conditions: NCTC10131, 144 h, read-out: in vitro MIC
[12] = test system: M. suipneumoniae NB12; test: MIC, anti-mycoplasmal, Friis broth solidified with 0.9% agarose; format: cell-based; conditions: Mesomycoplasma hyopneumoniae, 144 h, inoculum 10^3 to 10^5 C.F.U., 6 days incubation at 37°C, read-out: in vitro MIC
[13] = test system: Past Haemolytica PA5; test: MIC, veterinary bacteria; format: cell-based; conditions: veterinary bacteria (Table 2), read-out: MIC
[14] = test system: M. suipneumoniae ATCC 25095; test: MIC, anti-mycoplasmal, Friis broth solidified with 0.9% agarose; format: cell-based; conditions: Mesomycoplasma hyopneumoniae, ATCC25095, 144 h, inoculum 10^3 to 10^5 C.F.U., 6 days incubation at 37°C, read-out: in vitro MIC
[15] = test system: M. suipneumoniae LABER; test: as above; format: cell-based; conditions: Mesomycoplasma hyopneumoniae, 144 h, inoculum 10^3 to 10^5 C.F.U., 6 days incubation at 37°C, read-out: in vitro MIC
[16] = test system: E coli NCTC 10418; test: MIC, veterinary bacteria; format: cell-based; conditions: veterinary bacteria (Table 2), read-out: MIC
[17] = test system: Bord bronchiseptica BO8; test: MIC, veterinary bacteria; format: cell-based; conditions: veterinary bacteria (Table 2), read-out: MIC
[18] = test system: Staph aureus 152 (pen sens); test: MIC, veterinary bacteria; format: cell-based; conditions: Staphylococcus aureus, veterinary bacteria (Table 2), read-out: MIC
[19] = test system: Bord bronchisptica BO9; test: MIC, veterinary bacteria; format: cell-based; conditions: veterinary bacteria (Table 2), read-out: MIC
[20] = Serum binding by ultrafiltration; format: in vitro ADME, pig; conditions: pig, serum, compounds at 8 mcg/ml, microbiological assay (B. subtilis ATCC 6633), read-out: % bound to pig serum (converted)
Description: Serum binding was assessed by ultrafiltration of procine serum containing compounds at 8 mcg/ml, and through an Amicon CF50A ultrafiltration cone. Separation of ultrafiltrate was achieved by centrifugation.

[21] = test system: S dublin S7; test: MIC, veterinary bacteria; format: cell-based; conditions: veterinary bacteria (Table 2), read-out: MIC
[22] = test system: Strep agalactiae SPA1; test: MIC, veterinary bacteria; format: cell-based; conditions: veterinary bacteria (Table 2), read-out: MIC
[23] = test system: M. hyorhinis ATCC 25021; test: MIC, anti-mycoplasmal, Friis broth solidified with 0.9% agarose; format: cell-based; conditions: Mesomycoplasma hyorhinis, ATCC25021, 144 h, inoculum 10^3 to 10^5 C.F.U., 6 days incubation at 37°C, read-out: in vitro MIC
[24] = test system: M. bovigenitalium ATCC 14173; test: as above; format: cell-based; conditions: 144 h, inoculum 10^3 to 10^5 C.F.U., 6 days incubation at 37°C, read-out: in vitro MIC
[25] = test system: Staph aureus Oxford; test: MIC, veterinary bacteria; format: cell-based; conditions: Staphylococcus aureus, veterinary bacteria (Table 2), read-out: MIC
[26] = test system: E coli E1; test: MIC, veterinary bacteria; format: cell-based; conditions: veterinary bacteria (Table 2), read-out: MIC
[27] = test system: Strep suis (group D) SPS11; test: MIC, veterinary bacteria; format: cell-based; conditions: veterinary bacteria (Table 2), read-out: MIC
[28] = test system: M. suipneumoniae Str. 11; test: MIC, anti-mycoplasmal, Friis broth solidified with 0.9% agarose; format: cell-based; conditions: Mesomycoplasma hyopneumoniae, 144 h, inoculum 10^3 to 10^5 C.F.U., 6 days incubation at 37°C, read-out: in vitro MIC
[29] = test system: M. dispar NCTC 10125; test: as above; format: cell-based; conditions: 144 h, inoculum 10^3 to 10^5 C.F.U., 6 days incubation at 37°C, read-out: in vitro MIC
[30] = test system: M. suipneumoniae NCTC 10110; test: as above; format: cell-based; conditions: Mesomycoplasma hyopneumoniae, NCTC10110, 144 h, inoculum 10^3 to 10^5 C.F.U., 6 days incubation at 37°C, read-out: in vitro MIC
[31] = test system: Staph aureus B4 (pen resis); test: MIC, veterinary bacteria; format: cell-based; conditions: Staphylococcus aureus, veterinary bacteria (Table 2), read-out: MIC
[32] = test system: M. hyosynoviae ATCC 25591; test: MIC, anti-mycoplasmal, Friis broth solidified with 0.9% agarose; format: cell-based; conditions: 144 h, inoculum 10^3 to 10^5 C.F.U., 6 days incubation at 37°C, read-out: in vitro MIC
[33] = test system: Strep uberis SPU1; test: MIC, veterinary bacteria; format: cell-based; conditions: veterinary bacteria (Table 2), read-out: MIC
[34] = test system: M. suipneumoniae UCD 1; test: MIC, anti-mycoplasmal, Friis broth solidified with 0.9% agarose; format: cell-based; conditions: Mesomycoplasma hyopneumoniae, UCD1, 144 h, inoculum 10^3 to 10^5 C.F.U., 6 days incubation at 37°C, read-out: in vitro MIC
[35] = test system: M. suipneumoniae HK(2); test: as above; format: cell-based; conditions: Mesomycoplasma hyopneumoniae, 144 h, inoculum 10^3 to 10^5 C.F.U., 6 days incubation at 37°C, read-out: in vitro MIC
[36] = test system: M. suipneumoniae MS 16; test: as above; format: cell-based; conditions: Mesomycoplasma hyopneumoniae, MS16, 144 h, inoculum 10^3 to 10^5 C.F.U., 6 days incubation at 37°C, read-out: in vitro MIC
[37] = test system: M. suipneumoniae TAM 6N; test: as above; format: cell-based; conditions: Mesomycoplasma hyopneumoniae, TAM6N, 144 h, inoculum 10^3 to 10^5 C.F.U., 6 days incubation at 37°C, read-out: in vitro MIC
[38] = test system: M. suipneumoniae JF 435; test: as above; format: cell-based; conditions: Mesomycoplasma hyopneumoniae, JF435, 144 h, inoculum 10^3 to 10^5 C.F.U., 6 days incubation at 37°C, read-out: in vitro MIC
[39] = test system: M. hyorhinis ATCC 23234; test: as above; format: cell-based; conditions: Mesomycoplasma hyorhinis, ATCC23234, 144 h, inoculum 10^3 to 10^5 C.F.U., 6 days incubation at 37°C, read-out: in vitro MIC

CC(=O)Nc1ccc(C(=O)CCCOC(=O)C=C(C)CC2OCC(CC3OC3C(C)C(C)O)C(O)C2O)cc1 (stereo not drawn) [Example 9, 4-(4-Acetamidophenyl)-4-oxobutyl monate A]
0.625 µg/mL: MIC [1] | MIC [18] | MIC [22] | MIC [25]
0.05 µg/mL: MIC [24]
0.25 µg/mL: MIC [5] | MIC [15] | MIC [23] | MIC [28] | MIC [36] | MIC [39]
2.5 µg/mL: MIC [7] | MIC [8] | MIC [27]
≤ 0.01 µg/mL: MIC [11]
0.5 µg/mL: MIC [9] | MIC [10] | MIC [12] | MIC [14] | MIC [30] | MIC [34] | MIC [35] | MIC [37] | MIC [38]
1.25 µg/mL: MIC [31]
0.1 µg/mL: MIC [29] | MIC [32]
0.156 µg/mL: MIC [6] | MIC [33]
0.138: fraction unbound [20]
20 µg/mL: MIC [2] | MIC [13] | MIC [19]
> 80 µg/mL: MIC [3] | MIC [4] | MIC [16] | MIC [17] | MIC [21] | MIC [26]
